# Measurements taken from patent US20250236841A1, “METHODS TO ENHANCE TUMOR IMMUNOGENICITY AND COMPOSITIONS FOR AUTOLOGOUS CANCER IMMUNOTHERAPEUTIC PRODUCTS USING MODIFIED TUMOR CELLS AND MODIFIED DENDRITIC CELLS” (AIVITA BIOMEDICAL, INC., priority 2017, published 2025).
# Where a SMILES comes first, the peptide text is derived from it. The star is where a group is joined. Cbz = O=C(OCc1ccccc1)*; CH2F = FC*
# Assays:
# Format in all cases: cell-based
# [1] = system: isolated live cancer cells; assay: augmentation culture with proteasome inhibitors (Example 4); conditions: lactacystin 0.1-1 μM, epoxomicin 1-2 μM, and/or HMB 10-150 μg/mL; at least the last 24 hours prior to harvest
# Method: Isolated live cancer cells are placed in tissue culture. The tissue culture medium is supplemented with lactacystin at a concentration of 0.1-1 μM, epoxomicin at a concentration of 1-2 μM, and/or HMB at a concentration of 10-150 μg/mL. The inhibitor can be present throughout the augmentation phase of culture, or a portion thereof, but at least the last 24 hours prior to harvest. Doses in the lower end of the stated ranges are appropriate for longer term exposure. Doses at the high end of the state ranges can be used in the last 24 hours of cultivation. The content of protein (including normal, mutated and misfolded proteins) in the cancer cells is increased.
# [2] = system: established ovarian tumor line; assay: cell survival of ovarian tumor line culture exposed to proteasome inhibitor and/or caspase inhibitor
# Method: To benefit from the increased antigen content that can be obtained through use of a proteasome inhibitor, but also avoid triggering apoptosis, the proteasome inhibitor can be used in conjunction with a caspase inhibitor. First, to find the concentration of the proteasome inhibitor that caused minimal cell death, a range of bortezomib dilutions were tested in vitro on an established ovarian tumor line after reaching 70-90% confluence. The cultures were maintained in a standard DMEM:F12 media with 5% FBS. Bortezomib was reconstituted in DMSO and added directly to the cultures in concentrations from 0.1 to 100 nM
# A concentration of 20 μM was chosen for further experiments.
# Then the sequential application of the caspase inhibitor and proteasome inhibitor was tested. The tumor cells were cultured in the presence of 20 μM caspase inhibitor Z-VAD-fmk for 24 hours and then the medium was exchanged for medium containing bortezomib and the cells culture for another 48 hours. Bortezomib was used at the lowest concentration of that induced cell death, 5 nM.
# The simultaneous application of Bortezomib and Z-VAD-fmk was also tested using 1 nM Botezomib with either 1 or 20 μM Z-VAD-fmk.
# [3] = system: isolated live cancer cells; assay: culture with caspase inhibitor (Example 6); conditions: Z-VAD-fmk 5-50 μM throughout proliferation and augmentation phases
# Method: Isolated live cancer cells are placed in tissue culture. The tissue culture medium is supplemented with the broad spectrum caspase inhibitor Z-VAD-fmk at a concentration of 5-50 μM. The caspase inhibitor is added at the initiation of cell culture and maintained throughout the proliferation and augmentation phases of culture.
# CA125 = assay: antibody labeling and epifluorescence imaging of protein content, CA125; conditions: bortezomib 0.1 nM to 1.0 nM, without caspase inhibitor (FIGS. 6 and 7)
# Text: (§1) To evaluate protein content, we queried two targets that are commonly found in cancers: CA125, which is typically specific for ovarian cancer, and MUC1, which is common in many types of cancer (for example, colon, breast, ovarian, lung and pancreatic). The proteins were labeled using antibodies conjugated with Alexa Fluor 488 (green; anti-MUC1) or 594 (red; anti-CA125). The cells were imaged with an epifluorescence microscope (Nikon) with pre-set parameters for exposure and magnification.
# MUC1 = assay: antibody labeling and epifluorescence imaging of protein content, MUC1; conditions: bortezomib 0.1 nM to 1.0 nM, without caspase inhibitor (FIGS. 6 and 7)
# Text: as §1
# [4] = system: isolated live cancer cells; assay: augmentation culture with DNA methyltransferase inhibitor (Example 3); conditions: decitabine 100-500 nM throughout, or 1 μM-10 μM at beginning of augmentation phase
# Method: Isolated live cancer cells are placed in tissue culture. The tissue culture medium is supplemented with decitabine from the beginning of the augmentation phase for not less than one hour and up to the entire augmentation phase depending on concentration. A concentration of 100-500 nM can be used throughout the augmentation phase of cultivation. Alternatively a higher concentration of 1 μM-10 μM can be used at beginning of the augmentation phase and then removed or reduced to the lower concentration.
# [5] = system: isolated live cancer cells; assay: augmentation culture with histone deacetylase inhibitors (Example 2); conditions: 0.01 mM to 10 mM each in the medium during augmentation phase
# Method: Isolated live cancer cells are placed in tissue culture. During an augmentation phase, the tissue culture medium is supplemented with valproic acid or phenylbutyrate, or both, each at a concentration of 0.01 mM to 10 mM each. The level of histone acetylation, mRNA transcription, and protein expression, including expression of TAA, all increase.
# [6] = system: isolated live cancer cells; assay: depletion of Wnt signaling ligands (Example 7); conditions: beta-methyl-cyclodextrin 0.5-20 mM, one half to 3 hours prior to the end of the augmentation phase
# Method: Isolated live cancer cells are placed in tissue culture. One half to 3 hours prior to the end of the augmentation phase and preparation for DC loading, the tissue culture medium is supplemented with beta-methyl-cyclodextrin at a concentration of 0.5-20 mM. Cholesterol and Wnt ligands are depleted from the plasma membrane of the cancer cells.
compound,measurement,setting,value
"CC(C)(O)CC(=O)O [HMB, beta-hydroxy beta-methylbutyrate]","content of protein (including normal, mutated and misfolded proteins) in the cancer cells",[1],increased
COC(=O)C[C@H](NC(=O)[C@H](C)NC(=O)[C@@H](NC(=O)OCc1ccccc1)C(C)C)C(=O)CF [Z-VAD-fmk] (Cbz-Val-Ala-Asp(OMe)-CH2F),effect on cell survival,"[2]; Z-VAD-fmk 10-100 μM, without an apoptotic challenge",did not have an effect on cell survival
same,"accumulation of proteins, including TAA",[3],accumulate to higher levels than in untreated cultures
same,viability of the cultured cancer cells,[3],maintaining a high degree of viability
CC(C)C[C@H](NC(=O)[C@H](Cc1ccccc1)NC(=O)c1cnccn1)B(O)O [bortezomib],"abundance and content of CA125 (mean fluorescence intensity, sum of labeled pixels)",CA125,increase
same,effect on survival,[2]; below 1 nM bortezomib,did not have effect on survival
same,lowest concentration that induced cell death,[2]; bortezomib alone,5 nM
same,cell survival,"[2]; concentrations above 5 nM bortezomib, within 24 hours, DMEM:F12 with 5% FBS",all cells died
same,cell survival,[2]; from 5 nM to 1 nM bortezomib,cell survived proportional with decreasing concentration
same,"abundance and content of MUC1 (mean fluorescence intensity, sum of labeled pixels)",MUC1,increase
"Nc1ncn([C@H]2C[C@H](O)[C@@H](CO)O2)c(=O)n1 [decitabine, 5-aza-2′-deoxycytidine]",expression of silenced germ line and tumor-specific antigens,[4],increased and becomes more uniform
same,hypermethylation,[4],reversed
CC[C@H](C)[C@H](NC(=O)[C@H]([C@@H](C)CC)N(C)C(C)=O)C(=O)N[C@H](C(=O)N[C@@H](CC(C)C)C(=O)[C@@]1(C)CO1)[C@@H](C)O [epoxomicin],"content of protein (including normal, mutated and misfolded proteins) in the cancer cells",[1],increased
CC(=O)N[C@@H](CSC(=O)[C@]1([C@@H](O)C(C)C)NC(=O)[C@H](C)[C@@H]1O)C(=O)O [lactacystin],"content of protein (including normal, mutated and misfolded proteins) in the cancer cells",[1],increased
CCCC(CCC)C(=O)O [valproic acid],"level of histone acetylation, mRNA transcription, and protein expression, including expression of TAA",[5],increase
methyl-β-cyclodextrin [beta-methyl-cyclodextrin],cholesterol and Wnt ligands of the plasma membrane of the cancer cells,[6],depleted
